{"source": "ChEMBL document CHEMBL4177634", "about": "“6-Substituted quinolines as RORγt inverse agonists” (Bioorg Med Chem Lett, 2017)", "target": "T1, Nuclear receptor ROR-gamma (Homo sapiens, UniProt P51449)", "T1 sequence (P51449 whole entry)": "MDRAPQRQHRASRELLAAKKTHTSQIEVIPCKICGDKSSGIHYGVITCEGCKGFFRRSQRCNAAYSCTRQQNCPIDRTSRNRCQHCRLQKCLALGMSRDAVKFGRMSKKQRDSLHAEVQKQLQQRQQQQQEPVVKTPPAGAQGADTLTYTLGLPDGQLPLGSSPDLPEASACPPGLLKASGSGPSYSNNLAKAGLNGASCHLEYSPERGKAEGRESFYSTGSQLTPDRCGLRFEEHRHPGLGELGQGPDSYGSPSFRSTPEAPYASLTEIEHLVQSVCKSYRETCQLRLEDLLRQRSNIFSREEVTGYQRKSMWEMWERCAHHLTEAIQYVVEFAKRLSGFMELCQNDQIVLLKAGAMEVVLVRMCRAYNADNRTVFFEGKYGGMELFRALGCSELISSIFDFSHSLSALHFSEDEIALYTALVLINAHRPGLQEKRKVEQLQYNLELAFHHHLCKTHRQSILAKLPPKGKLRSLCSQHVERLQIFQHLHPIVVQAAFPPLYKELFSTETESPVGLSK", "assay": "Displacement of 1,8-ANS from human N-terminal His-tagged RORgammat LBD ([…]) expressed in Escherichia coli by thermofluor assay"}
{"smiles": "COc1nc2ccc(C(O)(c3ccccc3)C3CCN(C(C)=O)CC3)cc2c(Cl)c1Cc1ccc(-n2cccn2)cc1", "note": "(stereo in doubt; 25a)", "values": [{"measurement": "Kd", "value": 3.6, "unit": "nM"}]}
